Test results published in patent US7834023B2 (Portola Pharmaceuticals, Inc., priority 2006, dated 2010).

Target: T1, P2Y12 receptor (Homo sapiens, UniProt Q9H244)
T1 construct: endogenous in cells; host or cells: human platelets (outdated from blood banks or fresh), apyrase-washed, whole
Test: platelet ADP receptor binding assay (ARB): inhibition of [3H]2-MeS-ADP binding to platelets
Conditions: [3H]2-MeS-ADP binding to apyrase-washed human platelets
Protocol: 1. The Ability of Candidate Molecules to Inhibit the Binding of [^3H]2-MeS-ADP to the […] Receptor on Platelets was Determined Using a Radioligand Binding Assay.
Utilizing this assay the potency of inhibition of such compounds with respect to [^3H]2-MeS-ADP binding to whole platelets is determined. Under the conditions described in II (3) below, the binding of [^3H]2-MeS-ADP is solely due to the interaction of this ligand with the P2Y12 receptor, in that all the specific binding measured in this assay is competable with a P2Y12 antagonist (i.e., the specific binding is reduced to background levels by competition with an excess of P2Y12 antagonist, with no competition of binding when a P2Y1 antagonist is pre-incubated with the platelet preparation). [^3H]2-MeS-ADP binding experiments are routinely performed with outdated human platelets collected by standard procedures at hospital blood banks. Apyrase-washed outdated platelets are prepared as follows (all steps at room temperature, if not indicated otherwise):
Outdated platelet suspensions are diluted with 1 volume of CGS and platelets pelleted by centrifugation at 1900×g for 45 minutes. Platelet pellets are resuspended at 3-6×10^9 platelets/ml in CGS containing 1 U/ml apyrase (grade V, Sigma, St. Louis, Mo.) and incubated for 15 minutes at 37° C. After centrifugation at 730×g for 20 minutes, pellets are resuspended in Hepes-Tyrode's buffer containing 0.1% BSA (Sigma, St. Louis, Mo.) at a concentration of 6.66×10^8 platelets/ml. Binding experiments are performed after >45 minutes resting of the platelets.
Alternatively, binding experiments are performed with fresh human platelets prepared as described in section I (Inhibition of ADP-Mediated Platelet Aggregation in vitro), except that platelets are resuspended in Hepes-Tyrode's buffer containing 0.1% BSA (Sigma, St. Louis, Mo.) at a concentration of 6.66×10^8 platelets/mil. Very similar results are obtained with fresh and outdated platelets.
A platelet ADP receptor binding assay (ARB) using the tritiated potent agonist ligand [^3H]2-MeS-ADP (Jantzen, H. M. et al. (1999) Thromb. Hemost. 81:111-117) has been adapted to the 96-well microtiter format. In an assay volume of 0.2 ml Hepes-Tyrode's buffer with 0.1% BSA and 0.6% DMSO, 1×10^8 apyrase-washed platelets are preincubated in 96-well flat bottom microtiter plates for 5 minutes with serial dilutions of test compounds before addition of 1 nM [^3H]2-MeS-ADP ([^3H]2-methylthioadenosine-5′-diphosphate, ammonium salt; specific activity 20-50 Ci/mmole, obtained by custom synthesis from Amersham Life Science, Inc., Arlington Heights, Ill., or NEN Life Science Products, Boston, Mass.). Total binding is determined in the absence of test compounds. Samples for nonspecific binding may contain 10 μM unlabelled 2-MeS-ADP (RBI, Natick, Mass.). After incubation for 15 minutes at room temperature, unbound radioligand is separated by rapid filtration and two washes with cold (4-8° C.) Binding Wash Buffer (10 mM Hepes pH 7.4, 138 mM NaCl) using a 96-well cell harvester (Minidisc 96, Skatron Instruments, Sterling, Va.) and 8×12 GF/C glassfiber filtermats (Printed Filtermat A, for 1450 Microbeta, Wallac Inc., Gaithersburg, Md.). The platelet-bound radioactivity on the filtermats is determined in a scintillation counter (Microbeta 1450, Wallac Inc., Gaithersburg, Md.). Specific binding is determined by subtraction of non-specific binding from total binding, and specific binding in the presence of test compounds is expressed as % of specific binding in the absence of test compound dilutions. IC50s were derived by non-linear regression analysis.

T1 sequence (Q9H244 whole entry): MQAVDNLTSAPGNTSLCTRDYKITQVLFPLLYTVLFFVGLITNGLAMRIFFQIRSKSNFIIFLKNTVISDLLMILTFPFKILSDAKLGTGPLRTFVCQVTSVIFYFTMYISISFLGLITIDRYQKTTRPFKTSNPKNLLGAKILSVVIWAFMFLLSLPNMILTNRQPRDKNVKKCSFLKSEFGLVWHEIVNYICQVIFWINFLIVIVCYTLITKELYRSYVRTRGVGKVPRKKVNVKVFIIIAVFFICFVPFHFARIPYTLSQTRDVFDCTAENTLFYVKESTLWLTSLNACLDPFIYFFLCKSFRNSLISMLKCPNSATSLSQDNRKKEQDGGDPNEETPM

SMILES	IC50 [nM]
COc1cccc2c1OCN(c1ccc(C(=O)NC(C(=O)O)c3ccc(Cl)s3)cc1)C2=O (centres unmarked) [Compound 68, 2-(5-chlorothiophen-2-yl)-2-(4-(8-methoxy-4-oxo-2H-benzo[e][1,3]oxazin-3(4H)-yl)benzamido)acetic acid]	> 500
CNc1cc2[nH]c(=O)n(-c3ccc(C(=O)NC(c4cccc(OC(F)(F)F)c4)c4nnn[nH]4)cc3)c(=O)c2cc1F (centres unmarked) [Compound 31]	> 500
COC(=O)C(NC(=O)c1ccc(N2COc3ccc(C)cc3C2=O)cc1)c1ccc(Cl)s1 (centres unmarked) [Compound 76, methyl 2-(5-chlorothiophen-2-yl)-2-(4-(6-methyl-4-oxo-2H-benzo[e][1,3]oxazin-3(4H)-yl)benzamido)acetate]	> 500
CNc1cc2[nH]c(=O)n(-c3ccc(C(=O)NC(C(=O)OC)c4ccc(Cl)s4)cc3)c(=O)c2cc1F (centres unmarked) [Compound 18]	> 500
N#Cc1cn(-c2ccc(C(=O)NC(C(=O)O)c3ccc(Cl)s3)cc2)c(=O)c2ccccc12 (centres unmarked) [Compound 100, 2-(5-chlorothiophen-2-yl)-2-(4-(4-cyano-1-oxoisoquinolin-2(1H)-yl)benzamido)acetic acid]	> 500
CNc1cc2[nH]c(=O)n(-c3ccc(C(=O)NC(Cc4cccs4)C(=O)O)cc3)c(=O)c2cc1F (centres unmarked) [Compound 9, 2-(4-(6-fluoro-7-(methylamino)-2,4-dioxo-1,2-dihydroquinazolin-3(4H)-yl)benzamido)-3-(thiophen-2-yl)propanoic acid]	> 500
CNc1cc2[nH]c(=O)n(-c3ccc(C(=O)NC(c4cccc(F)c4)c4nnn[nH]4)cc3)c(=O)c2cc1F (centres unmarked) [Compound 24, 4-(6-fluoro-7-(methylamino)-2,4-dioxo-1,2-dihydroquinazolin-3(4H)-yl)-N-((3-fluorophenyl)(1H-tetrazol-5-yl)methyl)benzamide]	> 500
CNc1cc2[nH]c(=O)n(-c3ccc(C(=O)NC(c4cccc(C(F)(F)F)c4)c4nnn[nH]4)cc3)c(=O)c2cc1F (centres unmarked) [Compound 34]	> 500
CNc1cc2[nH]c(=O)n(-c3ccc(C(=O)NC(c4cc(Cl)cc(Cl)c4)c4nnn[nH]4)cc3)c(=O)c2cc1F (centres unmarked) [Compound 30, N-((3,5-dichlorophenyl)(1H-tetrazol-5-yl)methyl)-4-(6-fluoro-7-(methylamino)-2,4-dioxo-1,2-dihydroquinazolin-3(4H)-yl)benzamide]	> 500
O=C(NC(C(=O)O)c1cccs1)c1ccc(-n2c(=O)[nH]c3ccccc3c2=O)cc1 (centres unmarked) [Compound 39]	> 500
CNc1cc2[nH]c(=O)n(-c3ccc(NC(=O)NC(C(=O)O)c4ccc(Cl)s4)cc3)c(=O)c2cc1F (centres unmarked) [Compound 110, 2-(5-chlorothiophen-2-yl)-2-(3-(4-(6-fluoro-7-(methylamino)-2,4-dioxo-1,2-dihydroquinazolin-3(4H)-yl)phenyl)ureido)acetic acid]	> 500
O=C(NC(C(=O)O)c1ccc(Cl)s1)c1ccc(N2COc3ccccc3C2=O)cc1 (centres unmarked) [Compound 83, 2-(5-chlorothiophen-2-yl)-2-(4-(4-oxo-2H-benzo[e][31]oxazin-3(4H)-yl)benzamido)acetic acid]	> 500
CNc1cc2[nH]c(=O)n(-c3ccc(C(=O)N(CCC(=O)O)Cc4ccc(Cl)s4)cc3)c(=O)c2cc1F [Compound 40, 3-(N-((5-chlorothiophen-2-yl)methyl)-4-(6-fluoro-7-(methylamino)-2,4-dioxo-1,2-dihydroquinazolin-3(4H)-yl)benzamido)propanoic acid]	> 500
CNc1cc2[nH]c(=O)n(-c3cc(C(=O)NC(C(=O)O)c4ccc(Cl)s4)cs3)c(=O)c2cc1F (centres unmarked) [Compound 113, 2-(5-chlorothiophen-2-yl)-2-(5-(6-fluoro-7-(methylamino)-2,4-dioxo-1,2-dihydroquinazolin-3(4H)-yl)thiophene-3-carboxamido)acetic acid]	> 500
NC(=O)c1ccc2c(=O)n(-c3ccc(C(=O)NC(C(=O)O)c4ccc(Cl)s4)cc3)ccc2c1 (centres unmarked) [Compound 94, 2-(4-(6-carbamoyl-1-oxoisoquinolin-2(1H)-yl)benzamido)-2-(5-chlorothiophen-2-yl)acetic acid]	> 500
O=C(NC(C(=O)O)c1ccc(Cl)s1)c1ccc(-n2c(=O)[nH]c3ccccc3c2=O)cc1 (centres unmarked) [Compound 33, 2-(5-chlorothiophen-2-yl)-2-(4-(2,4-dioxo-1,2-dihydroquinazolin-3(4H)-yl)benzamido)acetic acid]	> 500

Further lines, results first:

IC50 [nM]	SMILES
50 to 500	O=C(Nc1ccc(-n2c(=O)[nH]c3cc(NCc4ccc(F)cc4)ccc3c2=O)cc1)NC(C(=O)O)c1cccs1 (centres unmarked) [Compound 108, 2-(3-(4-(7-(4-fluorobenzylamino)-2,4-dioxo-1,2-dihydroquinazolin-3(4H)-yl)phenyl)ureido)-2-(thiophen-2-yl)acetic acid]
> 500	CNc1cc2[nH]c(=O)n(-c3ccc(C(=O)NC(c4cccc(OC)c4)c4nnn[nH]4)cc3)c(=O)c2cc1F (centres unmarked) [Compound 23, 4-(6-fluoro-7-(methylamino)-2,4-dioxo-1,2-dihydroquinazolin-3(4H)-yl)-N-((3-methoxyphenyl)(1H-tetrazol-5-yl)methyl)benzamide]
< 50	CNc1cc2c(cc1F)C(=O)N(c1ccc(C(=O)N[C@H](c3nnn[nH]3)c3ccc(Cl)s3)cc1)CO2 [Compound 89, (R)-N-((5-chlorothiophen-2-yl)(1H-tetrazol-5-yl)methyl)-4-(6-fluoro-7-(methylamino)-4-oxo-2H-benzo[e][1,3]oxazin-3(4H)-yl)benzamide]
50 to 500	CNc1cc2c(cc1F)C(=O)N(c1ccc(CC(=O)NC(C(=O)OC)c3ccc(Cl)s3)cc1)CO2 (centres unmarked) [Compound 118, methyl 2-(5-chlorothiophen-2-yl)-2-(2-(4-(6-fluoro-7-(methylamino)-4-oxo-2H-benzo[e][1,3]oxazin-3(4H)-yl)phenyl)acetamido)acetate]
50 to 500	CNc1cc2c(cc1F)C(=O)N(c1ccc(C(=O)N[C@H](C(=O)O)c3ccccc3)cc1)CO2 [Compound 65, (S)-2-(4-(6-fluoro-7-(methylamino)-4-oxo-2H-benzo[e][1,3]oxazin-3(4H)-yl)benzamido)-2-phenylacetic acid]
< 50	O=C(NCc1ccc(Cl)s1)Nc1ccc(-n2c(=O)[nH]c3cc(NCc4ccc(F)cc4)ccc3c2=O)cc1 [Compound 107, 1-((5-chlorothiophen-2-yl)methyl)-3-(4-(7-(4-fluorobenzylamino)-2,4-dioxo-1,2-dihydroquinazolin-3(4H)-yl)phenyl)urea]
50 to 500	CNc1cc2c(cc1F)C(=O)N(c1ccc(C(=O)NC(C(=O)OC)c3ccc(Cl)s3)cc1)CO2 (centres unmarked) [Compound 66, methyl 2-(5-chlorothiophen-2-yl)-2-(4-(6-fluoro-7-(methylamino)-4-oxo-2H-benzo[e][1,3]oxazin-3(4H)-yl)benzamido)acetate]
< 50	CNc1cc2c(cc1F)C(=O)N(c1ccc(C(=O)N[C@@H](c3noc(=O)[nH]3)c3ccc(Cl)s3)cc1)CO2 [Compound 88, (S)-N-((5-chlorothiophen-2-yl)(5-oxo-4,5-dihydro-1,2,4-oxadiazol-3-yl)methyl)-4-(6-fluoro-7-(methylamino)-4-oxo-2H-benzo[e][1,3]oxazin-3(4H)-yl)benzamide]
50 to 500	CNc1cc2c(cc1F)C(=O)N(c1ccc(C(=O)NC(c3ccc(Cl)s3)c3nnnn3C)cc1)CO2 (centres unmarked) [Compound 73, N-((5-chlorothiophen-2-yl)(1-methyl-1H-tetrazol-5-yl)methyl)-4-(6-fluoro-7-(methylamino)-4-oxo-2H-benzo[e][1,3]oxazin-3(4H)-yl)benzamide]
50 to 500	CNc1cc2c(=O)n(-c3ccc(C(=O)NC(C(=O)O)c4ccc(Cl)s4)cc3)c(=O)[nH]c2cc1F (centres unmarked) [Compound 48, 2-(5-chlorothiophen-2-yl)-2-(4-(7-fluoro-6-(methylamino)-2,4-dioxo-1,2-dihydroquinazolin-3(4H)-yl)benzamido)acetic acid]
